How the values were obtained:
Caco-2 cell monolayer = test: DON-induced impairment of Caco-2 cell monolayer integrity (TEER, lucifer yellow flux); format: cell-based, human
Description: Caco-2 cells were used according to established methods. In brief: cells were cultured in Dulbecco's modified Eagle medium (DMEM) and seeded at a density of 0.3×10^5 cells into 0.3 cm^2 high pore density (0.4 μm) inserts with a polyethylene terephthalate membrane (BD Biosciences, Franklin Lakes, N.J., USA) placed in a 24-well plate. The Caco-2 cells were maintained in a humidified atmosphere of 95 air and 5% CO2 at 37° C.
Caco-2 cell monolayers were thus grown in a transwell system, which is a model for intestinal barrier function. The monolayers were pretreated for 24 h with different GLs, including beta3′-GL, alpha3′-GL, beta4′-GL and beta6′-GL in a concentration of 0.75 wt. % of the GL, before being exposed to the fungal toxin deoxynivalenol (DON), which is a trigger and model compound to impair intestinal barrier. DON was diluted to a final concentration of 4.2 μM in complete cell medium and added to the apical side as well as to the basolateral side of the transwell inserts. […] Incubation with DON was 24 h.
Measurements of the transepithelial electrical resistance (TEER) and lucifer yellow (LY) permeability were conducted to investigate barrier integrity. For TEER measurements a Millicel-ERS voltohmmeter connected to a pair of chopsticks electrodes was used to measure the TEER values. Results are expressed as a percentage of the initial value. For paracellular tracer flux assay the membrane impermeable lucifer yellow (LY) (Sigma, St Louis, Mo., USA) was added in a concentration of 16 μg/ml to the apical compartment in the transwell plate for 4 h, and the paracellular flux was determined by measuring the fluorescence intensity in the basolateral compartment with a spectrophotofluorimeter (FLUOstar Optima, BMG Labtech, Offenburg, Germany) set at excitation and emission wavelengths of 410 and 520 nm, respectively. Release of interleukin-8 (IL-8 or CXCL8), which is a typical marker for inflammation, was quantified in the medium of the apical side and the basolateral side of the Caco-2 transwell inserts in response to the treatments. CXCL8 concentrations were measured by using the human IL-8 ELISA assay (BD Biosciences, Pharmingem, San Diego, Calif., USA) according to manufacturer's instructions. For more details on materials and methods see Akbari et al, 2016, Eur J Nutr. 56(5):1919-1930.

Bifidobacteria = test: Fecal slurry fermentation, CFU of total Bifidobacteria
Description: A 32 well plate that can handle low pH was used. The wells of this plate were filled with fecal solution. 2.5% (w/v) of the different sterile carbohydrate solutions (3′-GL, 2′-FL, 2′-FL/3′-GL (2.0+0.5%). and Glucose were added to the fecal slurry according to a template.
(§1) The experiment was started, and pH setpoint was either 5.5 (facial inoculum from infant 1, vaginally born, breast fed) or pH 6.0 (Inoculum from infant 2, vaginally born, breast fed) with continuous pH regulation, and temperature 37° C., humidity 85%, OD control. At 4, 8 and 24 hours a sample is taken for CFU determination on TOS-propionate MUP agar (total Bifidobacteria), XLD agar for Salmonella enteriditis S29, and Simons citrate inositol agar for Klebsiella pneumonia K2 and for SCFA, D- and L Lactate and ammonia analysis. Fecal pellet was used for 16s DNA sequencing. For both inocula the extent of fermentation, as measured by NaOH consumption, i.e. acid production, was highest with the combination of 3′-GU2′-FL, when compared to 3′-GL or 2′-FL alone. The rate of initial acidification was high for 3′-GL and for 3′-GL/2′-FL. […] As the amount of carbohydrates that can be fermented is the same in the reaction vessels, the higher total acidification with the combination is indicative for an unexpected, synergistic effect of the combination of 2′-FL and 3′-GL. The SCFA that were produced was for the largest part acetic acid. Also L-lactic acid was produced.

[1] = tested on: human peripheral blood mononuclear cells (PBMC); test: PBMC cytokine levels, unstimulated condition; format: cell-based; settings: for Relative CCL 20, observed: 0.1 w/v % 3′-GL
Source text: Isolation of PBMC from healthy donors: Human peripheral blood mononuclear cells (PBMC) from healthy donors were isolated from buffy coats (Sanquin, Amsterdam, the Netherlands). PBMC were obtained by centrifugation using Leucosep tubes (Greiner Bio-One). […] After lysis, the PBMC were resuspended in freezing medium (70% RPMI 1640 medium (Gibco, Thermo Fisher Technologies) supplemented with 10% heat-inactivated FCS and 100 U/ml penicillin-streptomycin, 20% heat-inactivated FCS and 10% DMSO (Sigma)) and cryopreserved. PBMC activation model: PBMC (0.2.10^6 cell/well) were cultured in 96-well flat bottom plates (Corning). For 24 hours the cells were pre-incubated with 2'-FL (Jennewein), 3'-GL (0-0.3% w/v; […] Sigma Aldrich) and combinations thereof. Subsequently, the cells were CD3/CD28-activated (Pelicluster CD3 and Pelicluster CD28, Sanquin) for an additional 24 hours. After incubation, IFNγ was measured by ELISA in the supernatants (see below). […] Roche) and/or 10% Triton (5 μl; negative control). […] Cytokine production of PBMC: PBMC were incubated with indicated reagents. After incubation, the supernatants were collected and IL2, IL6, IL10, IL13, IL21, TNFα, IFNγ, MIF, CCL1, CCL13, CCL17, CCL20, CCL22 and CXCL8-11 levels were measured by conducting a validated multiplex immunoassay based on Luminex technology (xMAP, Luminex Austin Tex. USA). Acquisition was conducted with the Biorad […] (Biorad laboratories, Hercules USA) in combination with xPONENT software version 4.2 (Luminex). Data was analyzed by 5-parametric curve fitting using Bio-Plex Manager software, version 6.1.1 (Biorad). After PBMC stimulation, cell culture supernatants were collected, after which cytokine responses were measured in order to test immune responsiveness of the cells. The levels of cytokines measured in stimulated conditions were corrected for the (low) levels of the cytokines measured in non-stimulated conditions. In addition, since each donor is reacting in its own efficiency onto the T cell stimulus, we calculated the individual index of cytokine response by dividing the intervention induced response by the basal stimulated response.

Klebsiella pneumonia K2 = test: Fecal slurry fermentation spiked with pathogens, Klebsiella growth; settings: inoculum of baby 2
Description: In addition the test legs were supplemented with Clostridium difficile C153 (difficile agar), Salmonella enteriditis S29 (XLD agar), Cronobacter sakasakii E71 (chromogenic agar) or Klebsiella pneumonia K2 (Simons citrate inositol agar). For every NDO and for the control also a pathogen free culture was prepared.
as §1, with “The SCFA that were produced was for the largest part acetic acid. Also L-lactic acid was produced.” left out

[2] = DON 4.2 μM with 2′-FL 1 mg/ml, mean
[3] = unstimulated, relative to blanc (=1), 0.2% w/v 2′-FL, 0.2 mM butyrate, mean

| Compound | effect on DON induced reduction in TEER and increase in LYF (Caco-2 cell monolayer; 2′-FL 1 mg/ml) | Lucifer yellow flux (Caco-2 cell monolayer; [2]) | TEER (% of initial value) (Caco-2 cell monolayer; [2]) | Growth of bifidobacteria (Bifidobacteria) | IL10 level compared to blanc control ([1]; 0.2% 2′-FL, 0.2 mM butyrate) | CCL20 level compared to blanc control ([1]; unstimulated) | Relative IL10 level, observed ([1]; unstimulated, relative to blanc (=1), 0.2% w/v 2′-FL, 0.2 mM butyrate, mean, 10 donors) | Relative CCL 20, observed [1, 3] | effect on DON-induced loss of epithelial barrier integrity (TEER, LY flux) (Caco-2 cell monolayer; 24 h pretreatment with 0.75 wt. % GL, then DON 4.2 μM 24 h, FIGS. 1A-D) | effect on bifidobacteria (Bifidobacteria; inoculum of baby 2) | Klebsiella growth (Klebsiella pneumonia K2) |
| --- | --- | --- | --- | --- | --- | --- | --- | --- | --- | --- | --- |
| C[C@@H]1O[C@@H](O[C@H]2[C@H](O[C@H]3[C@H](O)[C@@H](O)C(O)O[C@@H]3CO)O[C@H](CO)[C@H](O)[C@@H]2O)[C@@H](O)[C@H](O)[C@@H]1O (stereo partly drawn) [2′-FL, α-L-Fuc-(1→2)-β-D-Gal-(1→4)-D-Glc] | statistically significantly prevent the DON induced reduction in TEER and increase in LYF | 446.4 ng/ml (cm^2 × h) | 42.79 % of initial value | Growth of bifidobacteria was observed | significantly (p<0.05) increased level of IL10 | increased level of CCL20 | 3.361 | 2.586 | – | – | – |
| Gal (beta 1-3)-Gal (beta 1-4)-Glc [3′-GL] | – | – | – | Growth of bifidobacteria was observed | – | did not have a statistically significant effect | – | 1.164 | prevented the DON-induced loss of epithelial barrier integrity | highest | most inhibited |

Source: patent publication US20220079962A1, “NUTRITIONAL COMPOSITION COMPRISING 2'FUCOSYLLACTOSE AND DIETARY BUTYRATE” (N.V. Nutricia, priority 2019, published 2022)
